Results from patent US20260077051A1, “COMPOUNDS FOR THE DEGRADATION OF EGFR KINASE” (BeOne Medicines I GmbH, priority 2023, published 2026).

What was measured:
[1] = molecular target: T1, EGFR L858R (BaF3-L858R cells) (Homo sapiens, UniProt P00533, L858R); experiment: EGFR degradation in BaF3-L858R cells (HTRF assay); format: cell-based; conditions: 16 h treatment; for DC50: IC50(DC50) of EGFR degradation; for Dmax: maximum percentage of inhibition (degradation)
T1 construct: host or cells: BaF3
Procedure: BaF3-L858R (abbv. L858R) cell were purchased from Kangyuan Bochuang Biotechnology (Beijing) Co., Ltd.
(§1) H1975-#8 and BaF3-L858R cells are treated with compounds diluted in 0.1% DMSO cell culture medium on day 2, incubate for 16 h, 37° C., 5% CO2. the final concentration of compounds in all assay is start with 10 uM, 5-fold dilution, total 8 doses were included.
(§2) After 16 h treatment, for H1975-#8 cells, add 100 ul HTRF 1× lysis buffer to each well; for BaF3-L858R cells, add 20 μl 4× lysis buffer to each well; seal the plate and incubate 1 hour at room temperature on a plate shaker; Once the cells are lysed, 16 μL of cell lysate are transferred to a PE 384-well HTRF detection plate; 4 μL of pre-mixed HTRF antibodies are added to each well; Cover the plate with a plate sealer, spin 1000 rpm for 1 min, Incubate overnight at room temperature; Read on BMG PheraStar with HTRF protocol (337 nm-665 nm-620 nm).
(§3) The inhibition (degradation) percentage of the compound was calculated by the following equation:
(§4) High control=Cell group with added DMSO and without compound, indicating microplate readings without EGFR degradation;
(§5) Dmax is the maximum percentage of inhibition (degradation).
(§6) The IC50(DC50) value of a compound can be obtained by fitting the following equation
(§7) Wherein, X and Y are known values, and IC50, Hillslope, Top and Bottom are the parameters obtained by fitting with software. Y is the inhibition percentage (calculated from the equation), X is the concentration of the compound; IC50 is the concentration of the compound when the 50% inhibition is reached. The smaller the IC50 value is, the stronger the inhibitory ability of the compound is. Vice versa, the higher the IC50 value is, the weaker the ability the inhibitory ability of the compound is; Hillslope represents the slope of the fitted curve, generally around 1*; Bottom represents the minimum value of the curve obtained by data fitting, which is generally 0%±20%; Top represents the maximum value of the curve obtained by data fitting, which is generally 100%±20%. The experimental data were fitted by calculating and analyzing with Dotmatics data analysis software.

[2] = molecular target: T2, EGFR-L858R/C797S (H1975-clone #8 cells) (Homo sapiens, UniProt P00533, C797S/L858R); experiment: EGFR degradation in H1975-clone#8 (L858R/C797S) cells (HTRF assay); format: cell-based; conditions: 16 h treatment; for DC50: IC50(DC50) of EGFR degradation; for Dmax: maximum percentage of inhibition (degradation)
T2 construct: expressed in transfected cells; host or cells: H1975 (lentiviral transduction, endogenous EGFR knocked out, single clone #8)
Procedure: H1975-clone #8 (L858R/C797S): EGFR-L858R/C797S were stably expressed in H1975 cell lines by lentivirus-mediated over-expression, respectively. The EGFR over-expressed cells then underwent knockout, in which the EGFR targeting sgRNA was designed to only target the endogenous EGFR copies and preserve the exogenous EGFR copies. Followed by the knockout, the edited H1975 cells were seeded in 96 well plates at the concentration of […], cultured for about 2 weeks to allow single clones formation. The formed clones were screened by DNA sequencing and whole exon sequencing analysis for the desired edition. H1975-clone #8 were finally confirmed as homozygous L858R/C797S EGFR clones.
as §1, §2, §3, §4, §5, §6, §7

T1 sequence (P00533 25-1210 L858R): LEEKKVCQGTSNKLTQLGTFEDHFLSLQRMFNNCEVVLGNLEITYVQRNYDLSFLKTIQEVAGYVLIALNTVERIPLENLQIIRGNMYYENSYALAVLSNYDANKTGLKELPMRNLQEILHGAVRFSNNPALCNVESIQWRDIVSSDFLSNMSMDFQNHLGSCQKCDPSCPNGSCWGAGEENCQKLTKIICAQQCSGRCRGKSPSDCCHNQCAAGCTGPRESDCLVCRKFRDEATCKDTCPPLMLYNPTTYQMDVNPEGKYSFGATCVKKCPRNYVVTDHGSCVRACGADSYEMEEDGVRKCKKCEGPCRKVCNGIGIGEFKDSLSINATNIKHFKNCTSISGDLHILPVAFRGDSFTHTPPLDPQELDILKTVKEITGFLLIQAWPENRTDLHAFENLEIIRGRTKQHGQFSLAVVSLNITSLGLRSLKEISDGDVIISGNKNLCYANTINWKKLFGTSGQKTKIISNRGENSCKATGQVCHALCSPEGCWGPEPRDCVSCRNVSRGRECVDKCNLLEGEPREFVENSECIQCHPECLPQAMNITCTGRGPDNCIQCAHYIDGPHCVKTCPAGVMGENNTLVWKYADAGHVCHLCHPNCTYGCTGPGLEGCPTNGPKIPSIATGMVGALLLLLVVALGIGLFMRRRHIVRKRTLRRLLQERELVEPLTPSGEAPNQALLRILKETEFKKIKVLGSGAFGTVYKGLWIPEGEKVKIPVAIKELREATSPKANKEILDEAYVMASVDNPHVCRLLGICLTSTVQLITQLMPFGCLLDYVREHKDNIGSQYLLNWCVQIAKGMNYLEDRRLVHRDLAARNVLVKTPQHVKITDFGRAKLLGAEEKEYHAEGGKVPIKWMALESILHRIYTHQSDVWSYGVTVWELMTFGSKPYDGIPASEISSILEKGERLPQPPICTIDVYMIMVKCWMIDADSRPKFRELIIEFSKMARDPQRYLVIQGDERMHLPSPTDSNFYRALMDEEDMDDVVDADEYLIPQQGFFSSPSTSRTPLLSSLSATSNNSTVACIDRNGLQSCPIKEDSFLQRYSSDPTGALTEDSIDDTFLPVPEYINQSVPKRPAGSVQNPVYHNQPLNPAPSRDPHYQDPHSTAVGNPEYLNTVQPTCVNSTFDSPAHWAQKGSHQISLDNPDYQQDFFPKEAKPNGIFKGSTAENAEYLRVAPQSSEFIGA
T2 sequence (P00533 25-1210 C797S/L858R): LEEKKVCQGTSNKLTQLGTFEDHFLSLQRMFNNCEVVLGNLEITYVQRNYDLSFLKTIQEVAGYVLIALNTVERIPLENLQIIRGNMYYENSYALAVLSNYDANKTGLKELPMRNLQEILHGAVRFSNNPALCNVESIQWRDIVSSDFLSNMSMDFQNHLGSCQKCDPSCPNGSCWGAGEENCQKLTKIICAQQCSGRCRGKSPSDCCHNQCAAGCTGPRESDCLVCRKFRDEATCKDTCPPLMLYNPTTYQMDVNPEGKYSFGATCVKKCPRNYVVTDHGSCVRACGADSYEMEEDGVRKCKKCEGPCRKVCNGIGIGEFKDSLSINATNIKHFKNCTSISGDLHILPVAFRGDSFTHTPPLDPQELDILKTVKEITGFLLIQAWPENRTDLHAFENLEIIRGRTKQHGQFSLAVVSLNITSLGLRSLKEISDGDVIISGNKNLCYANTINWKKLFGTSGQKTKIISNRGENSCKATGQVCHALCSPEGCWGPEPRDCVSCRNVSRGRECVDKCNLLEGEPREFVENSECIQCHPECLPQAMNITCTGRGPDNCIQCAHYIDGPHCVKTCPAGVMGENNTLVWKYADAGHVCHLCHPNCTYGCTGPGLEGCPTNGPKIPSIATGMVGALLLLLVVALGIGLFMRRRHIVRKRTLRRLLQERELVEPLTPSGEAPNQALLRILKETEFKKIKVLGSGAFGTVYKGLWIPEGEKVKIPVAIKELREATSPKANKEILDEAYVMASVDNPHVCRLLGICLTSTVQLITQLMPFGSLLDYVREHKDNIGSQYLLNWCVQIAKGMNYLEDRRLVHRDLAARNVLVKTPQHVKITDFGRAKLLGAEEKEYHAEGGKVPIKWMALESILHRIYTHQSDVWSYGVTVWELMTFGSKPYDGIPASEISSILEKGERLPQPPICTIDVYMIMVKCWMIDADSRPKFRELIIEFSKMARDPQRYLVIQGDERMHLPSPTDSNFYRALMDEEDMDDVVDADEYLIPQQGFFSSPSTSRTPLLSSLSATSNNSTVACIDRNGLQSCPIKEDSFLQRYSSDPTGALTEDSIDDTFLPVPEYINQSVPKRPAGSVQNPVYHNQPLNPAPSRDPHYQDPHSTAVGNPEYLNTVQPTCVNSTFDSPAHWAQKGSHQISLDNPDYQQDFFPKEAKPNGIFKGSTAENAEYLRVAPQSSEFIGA

DC50 [1]	Dmax [1]	DC50 [2]	Dmax [2]	Compound
3.2 nM	91.3%	4.21 nM	61.7%	Cc1cc2cc(n1)-c1cnn(C)c1OCC[C@]1(C)C[C@H]1CN1/C(=N/C2=O)Nc2ccc(N3CCN([C@@H]4CCN(c5cccc6c5C(C)(C)C(=O)N6C5CCC(=O)NC5=O)C[C@@H]4F)CC3)cc21 (stereo partly drawn) [Example 57, 3-(4-((3S,4R)-3-fluoro-4-(4-((7^1R,7^2S,E)-1^1,2^6,7^2-trimethyl-3-oxo-5^2,5^3-dihydro-1^1H,5^1H-10-oxa-4-aza-5 (2,1)-benzo[d]imidazola-2 (2,4)-pyridina-1 (4,5)-pyrazola-7 (1,2)-cyclopropanacyclodecaphane-5^6-yl)piperazin-1-yl)piperidin-1-yl)-3,3-dimethyl-2-oxoindolin-1-yl)piperidine-2,6-dione]
4.48 nM	82.5%	4.96 nM	46.1%	Cc1cc2cc(n1)-c1cnn(C)c1OCC[C@H]1C[C@@H]1CN1/C(=N/C2=O)Nc2ccc(N3CCN(C4CCN(c5c(C)cc(C6CCC(=O)NC6=O)nc5C)CC4)CC3)cc21 (some centres unmarked) [Example 15, 3-(5-(4-(4-((7^1S,7^2R,E)-1^1,2^6-dimethyl-3-oxo-5^2,5^3-dihydro-1^1H,5^1H-10-oxa-4-aza-5 (2,1)-benzo[d]imidazola-2 (2,4)-pyridina-1 (4,5)-pyrazola-7 (1,2)-cyclopropanacyclodecaphane-5^6-yl)piperazin-1-yl)piperidin-1-yl)-4,6-dimethylpyridin-2-yl)piperidine-2,6-dione]
11.6 nM	85.5%	3.1 nM	65.2%	Cc1cc2cc(n1)-c1cnn(C)c1OCC[C@H]1C[C@@H]1CN1/C(=N/C2=O)Nc2ccc(N3CCN(C4CCN(c5ccc(C6CCC(=O)NC6=O)nc5C)CC4)C[C@@H]3C)cc21 (stereo partly drawn) [Example 3, 3-(5-(4-((S)-4-((7^1S,7^2R,E)-1^1,2^6-dimethyl-3-oxo-5^2,5^3-dihydro-1^1H,5^1H-10-oxa-4-aza-5 (2,1)-benzo[d]imidazola-2 (2,4)-pyridina-1 (4,5)-pyrazola-7 (1,2)-cyclopropanacyclodecaphane-5-yl)-3-methylpiperazin-1-yl)piperidin-1-yl)-6-methylpyridin-2-yl)piperidine-2,6-dione]
1.25 nM	79.1%	1.31 nM	63.6%	Cc1cc2cc(n1)-c1cnn(C)c1OCC[C@]1(C)C[C@H]1CN1/C(=N/C2=O)Nc2ccc(N3CCN(C4CN(C5CCN(c6cc(F)c([C@H]7CCC(=O)NC7=O)c(F)c6)CC5)C4)C[C@@H]3C)cc21 [Example 27, (R)-3-(2,6-difluoro-4-(4-(3-((S)-3-methyl-4-((7^1R,7^2S,E)-1^1,2^6,7^2-trimethyl-3-oxo-5^2,5^3-dihydro-1^1H,5^1H-10-oxa-4-aza-5 (2,1)-benzo[d]imidazola-2 (2,4)-pyridina-1 (4,5)-pyrazola-7 (1,2)-cyclopropanacyclodecaphane-5^6-yl)piperazin-1-yl)azetidin-1-yl)piperidin-1-yl)phenyl)piperidine-2,6-dione]
3.9 nM	67.8%	0.986 nM	49.2%	Cc1cc2cc(n1)-c1cnn(C)c1OCC[C@]1(C)C[C@H]1CN1/C(=N/C2=O)Nc2ccc(N3CCC(C(=O)N4CCC(Oc5cc(F)c([C@H]6CCC(=O)NC6=O)c(F)c5)CC4)CC3)cc21 [Example 29, (R)-3-(2,6-difluoro-4-((1-(1-((7^1R,7^2S,E)-1^1,2^6,7^2-trimethyl-3-oxo-5^2,5^3-dihydro-1^1H,5^1H-10-oxa-4-aza-5 (2,1)-benzo[d]imidazola-2 (2,4)-pyridina-1 (4,5)-pyrazola-7 (1,2)-cyclopropanacyclodecaphane-5^6-yl)piperidine-4-carbonyl)piperidin-4-yl)oxy)phenyl)piperidine-2,6-dione]
12.4 nM	86.8%	0.603 nM	59.1%	Cc1cc2cc(n1)-c1cnn(C)c1OCC[C@H]1C[C@@H]1CN1/C(=N/C2=O)Nc2ccc(N3CCN(C4CN(C5CCN(c6ccc(C7CCC(=O)NC7=O)nc6C)CC5)C4)CC3)cc21 (some centres unmarked) [Example 20, 3-(5-(4-(3-(4-((7^1S,7^2R,E)-1^1,2^6-dimethyl-3-oxo-5^2,5^3-dihydro-1^1H,5^1H-10-oxa-4-aza-5 (2,1)-benzo[d]imidazola-2 (2,4)-pyridina-1 (4,5)-pyrazola-7 (1,2)-cyclopropanacyclodecaphane-5^6-yl)piperazin-1-yl)azetidin-1-yl)piperidin-1-yl)-6-methylpyridin-2-yl)piperidine-2,6-dione]
6.97 nM	91.3%	> 10000 nM	31.2%	Cc1cc2cc(n1)-c1cnn(C)c1OCC[C@H]1C[C@@H]1CN1/C(=N/C2=O)Nc2ccc(N3CCN(C4CN(C5CCN(c6cc(F)c([C@H]7CCC(=O)NC7=O)c(F)c6)CC5)C4)CC3)cc21 [Example 10, (R)-3-(4-(4-(3-(4-((7^1S,7^2R,E)-1^1,2^6-dimethyl-3-oxo-5^2,5^3-dihydro-1^1H,5^1H-10-oxa-4-aza-5 (2,1)-benzo[d]imidazola-2 (2,4)-pyridina-1 (4,5)-pyrazola-7 (1,2)-cyclopropanacyclodecaphane-5^6-yl)piperazin-1-yl)azetidin-1-yl)piperidin-1-yl)-2,6-difluorophenyl)piperidine-2,6-dione]
1.74 nM	86.2%	2.81 nM	88.8%	Cc1cc2cc(n1)-c1cnn(C)c1OCC[C@]1(C)C[C@H]1CN1/C(=N/C2=O)Nc2ccc(N3CCN([C@@H]4CCN(c5cc(F)c(C6CCC(=O)NC6=O)nc5C)C[C@@H]4F)CC3)cc21 (stereo partly drawn) [Example 43, 3-(3-fluoro-5-((3S,4R)-3-fluoro-4-(4-((7^1R,7^2S,E)-1^1,2^6,7^2-trimethyl-3-oxo-5^2,5^3-dihydro-1^1H,5^1H-10-oxa-4-aza-5 (2,1)-benzo[d]imidazola-2 (2,4)-pyridina-1 (4,5)-pyrazola-7 (1,2)-cyclopropanacyclodecaphane-5^6-yl)piperazin-1-yl)piperidin-1-yl)-6-methylpyridin-2-yl)piperidine-2,6-dione]
7.47 nM	83.8%	11.9 nM	57%	Cc1cc2cc(n1)-c1cnn(C)c1OCC[C@H]1C[C@@H]1CN1/C(=N/C2=O)Nc2ccc(N3CCN([C@@H]4CCN(c5cc(F)c(C6CCC(=O)NC6=O)nc5C)C[C@@H]4F)CC3)cc21 (stereo partly drawn) [Example 34, 3-(5-((3S,4R)-4-(4-((7^1S,7^2R,E)-1^1,2^6-dimethyl-3-oxo-5^2,5^3-dihydro-1^1H,5^1H-10-oxa-4-aza-5 (2,1)-benzo[d]imidazola-2 (2,4)-pyridina-1 (4,5)-pyrazola-7 (1,2)-cyclopropanacyclodecaphane-5^6-yl)piperazin-1-yl)-3-fluoropiperidin-1-yl)-3-fluoro-6-methylpyridin-2-yl)piperidine-2,6-dione]
22 nM	59%	8.44 nM	41.4%	Cc1cc2cc(n1)-c1cnn(C)c1OCC[C@H]1C[C@@H]1CN1/C(=N/C2=O)Nc2ccc(N3CCN(CCc4cc(F)c([C@H]5CCC(=O)NC5=O)c(F)c4)C(C4CCOC4)C3)cc21 (stereo partly drawn) [Example 35, (3R)-3-(4-(2-(4-((7^1S,7^2R,E)-1^1,2^6-dimethyl-3-oxo-5^2,5^3-dihydro-1^1H,5^1H-10-oxa-4-aza-5 (2,1)-benzo[d]imidazola-2 (2,4)-pyridina-1 (4,5)-pyrazola-7 (1,2)-cyclopropanacyclodecaphane-5^6-yl)-2-(tetrahydrofuran-3-yl)piperazin-1-yl)ethyl)-2,6-difluorophenyl)piperidine-2,6-dione]
2.32 nM	84.1%	1.6 nM	68.7%	Cc1cc2cc(n1)-c1cnn(C)c1OCC[C@]1(C)C[C@H]1CN1/C(=N/C2=O)Nc2ccc(N3CCN(C4CCN(c5cc(F)c([C@H]6CCC(=O)NC6=O)c(F)c5)CC4)CC3)cc21 [Example 17, (R)-3-(2,6-difluoro-4-(4-(4-((7^1R,7^2S,E)-1^1,2^6,7^2-trimethyl-3-oxo-5^2,5^3-dihydro-1^1H,5^1H-10-oxa-4-aza-5 (2,1)-benzo[d]imidazola-2 (2,4)-pyridina-1 (4,5)-pyrazola-7 (1,2)-cyclopropanacyclodecaphane-5^6-yl)piperazin-1-yl)piperidin-1-yl)phenyl)piperidine-2,6-dione]
